From ChEMBL document CHEMBL4418316, “Oxazole derivatives for use in the treatment of cancer” (2018)

Tested on: not listed separately
Assay: Antiproliferative activity against mouse LM2 cells after 72 hrs by Celltiter-glo luminescence assay
Type: functional, cell-based
Details: not given

Structure (SMILES)	EC50
CNC1CCN(Cc2ncc(-c3ccc(Cl)c(NC(=O)c4coc(N)n4)c3)s2)CC1	< 100 nM
Nc1nc(C(=O)Nc2cc(-c3cnn(C4CCCNC4)c3)ccc2Cl)co1 (configuration not stated)	100 to 250 nM
Nc1nc(C(=O)Nc2cc(-c3ccc(OC4CCNC4)nc3)ccc2Cl)co1 (configuration not stated)	250 to 500 nM
Nc1nc(C(=O)Nc2cc(-c3ccc(CN4CCNCC4)cc3)ccc2Cl)co1	250 to 500 nM
CSc1ccc(-c2cnc(OCCCN(C)C)s2)cc1NC(=O)c1coc(N)n1	100 to 250 nM
CN1CCC(n2cc(-c3ccc(Cl)c(NC(=O)c4coc(N)n4)c3)cn2)CC1	100 to 250 nM
CC(C)NCCCOc1ccc(-c2ccc(Cl)c(NC(=O)c3coc(N)n3)c2)cn1	100 to 250 nM
CN1CC(n2cc(-c3ccc(Cl)c(NC(=O)c4coc(N)n4)c3)cn2)C1	100 to 250 nM
CN(C)CCCOc1nc(-c2ccc(Cl)c(NC(=O)c3coc(N)n3)c2)cs1	250 to 500 nM
CN1CCN(Cc2ccc(-c3ccc(Cl)c(NC(=O)c4coc(N)n4)c3)cn2)CC1	250 to 500 nM
Nc1nc(C(=O)Nc2cc(-c3cnc(CN4CCNCC4)s3)ccc2Cl)co1	100 to 250 nM
CN(C)CCOc1ccc(-c2ccc(Cl)c(NC(=O)c3coc(N)n3)c2)cc1	100 to 250 nM
CCNCCCn1cc(-c2ccc(Cl)c(NC(=O)c3coc(N)n3)c2)cn1	< 100 nM
Nc1nc(C(=O)Nc2cc(-c3cnn(CCCN4CCNCC4)c3)ccc2Cl)co1	100 to 250 nM
CN1CCN(c2ncc(-c3ccc(Cl)c(NC(=O)c4coc(N)n4)c3)s2)CC1	100 to 250 nM
Nc1nc(C(=O)Nc2cc(-c3cnn(C4CCNCC4)c3)ccc2Cl)co1	250 to 500 nM
CCN(CC)CCCOc1ncc(-c2ccc(Cl)c(NC(=O)c3coc(N)n3)c2)s1	< 100 nM
CN(C)CCOc1ncc(-c2ccc(Cl)c(NC(=O)c3coc(N)n3)c2)cn1	250 to 500 nM
Nc1nc(C(=O)Nc2cc(-c3ccn(C4CCNCC4)n3)ccc2Cl)co1	250 to 500 nM
CN1CCN(CCn2cc(-c3ccc(Cl)c(NC(=O)c4coc(N)n4)c3)cn2)CC1	250 to 500 nM
CCNCCn1cc(-c2ccc(Cl)c(NC(=O)c3coc(N)n3)c2)cn1	100 to 250 nM

Structure (SMILES)	EC50
CSc1ccc(-c2nc(CN3CCNCC3)cs2)cc1NC(=O)c1coc(N)n1	< 100 nM
CNC1CCCN(Cc2csc(-c3ccc(Cl)c(NC(=O)c4coc(N)n4)c3)n2)C1 (configuration not stated)	< 100 nM
CSc1ccc(-c2ccc(OCCCN(C)C)nc2)cc1NC(=O)c1coc(N)n1	250 to 500 nM
Nc1nc(C(=O)Nc2cc(-c3nc(CN4CCNCC4)cs3)ccc2Cl)co1	< 100 nM
Nc1nc(C(=O)Nc2cc(-c3ccc(CN[C@H]4CC[C@H](N)CC4)nc3)ccc2Cl)co1	250 to 500 nM
CN(C)CCCc1ncc(-c2ccc(Cl)c(NC(=O)c3coc(N)n3)c2)s1	< 100 nM
CN1CCC(NC(=O)Cn2cc(-c3ccc(Cl)c(NC(=O)c4coc(N)n4)c3)cn2)CC1	250 to 500 nM
Nc1nc(C(=O)Nc2cc(-c3ccc(OCC4CCCNC4)nc3)ccc2Cl)co1 (configuration not stated)	250 to 500 nM
CN(C)CCCOc1ccc(-c2ccc(Cl)c(NC(=O)c3coc(N)n3)c2)nc1	250 to 500 nM
CN(C)CCOc1ccc(-c2ccc(Cl)c(NC(=O)c3coc(N)n3)c2)cn1	250 to 500 nM
CNCCCOc1ccc(-c2ccc(Cl)c(NC(=O)c3coc(N)n3)c2)cn1	100 to 250 nM
CN(C)CCC(=O)N1CC(Cn2cc(-c3ccc(Cl)c(NC(=O)c4coc(N)n4)c3)cn2)C1	250 to 500 nM
Nc1nc(C(=O)Nc2cc(-c3cnc(OC4CCNCC4)s3)ccc2Cl)co1	< 100 nM
CN(C)CCC(=O)N1CCC(n2cc(-c3ccc(Cl)c(NC(=O)c4coc(N)n4)c3)cn2)CC1	250 to 500 nM
Nc1nc(C(=O)Nc2cc(-c3cnc(OC4CCNCC4)nc3)ccc2Cl)co1	250 to 500 nM
Nc1nc(C(=O)Nc2cc(-c3ccc(CN4CCNCC4)nc3)ccc2Cl)co1	250 to 500 nM
CN(C)CCCOc1ncc(-c2ccc(Cl)c(NC(=O)c3coc(N)n3)c2)s1	< 100 nM
Nc1nc(C(=O)Nc2cc(-c3ccc(OC4CCNCC4)nc3)ccc2Cl)co1	250 to 500 nM
CNCCn1cc(-c2ccc(Cl)c(NC(=O)c3coc(N)n3)c2)cn1	100 to 250 nM
CN(C)C1CCN(Cc2csc(-c3ccc(Cl)c(NC(=O)c4coc(N)n4)c3)n2)CC1	100 to 250 nM
CNCCCn1cc(-c2ccc(Cl)c(NC(=O)c3coc(N)n3)c2)cn1	< 100 nM

Structure (SMILES)	EC50
CN(C)CCCOc1ccc(-c2ccc(Cl)c(NC(=O)c3coc(N)n3)c2)cn1	100 to 250 nM
CN(C)C1CCN(C(=O)Cn2cc(-c3ccc(Cl)c(NC(=O)c4coc(N)n4)c3)cn2)CC1	250 to 500 nM
Nc1nc(C(=O)Nc2cc(-c3ccc(N4CCNCC4)cc3)ccc2Cl)co1	250 to 500 nM
CN(C)CCCC(=O)N1CCC(n2cc(-c3ccc(Cl)c(NC(=O)c4coc(N)n4)c3)cn2)CC1	250 to 500 nM
CN1CCN(CCCn2cc(-c3ccc(Cl)c(NC(=O)c4coc(N)n4)c3)cn2)CC1	100 to 250 nM
Nc1nc(C(=O)Nc2cc(-c3ccc(CN4CC5CNCC5C4)nc3)ccc2Cl)co1 (configuration not stated)	250 to 500 nM
CN(C)CC(=O)N1CCC(n2cc(-c3ccc(Cl)c(NC(=O)c4coc(N)n4)c3)cn2)CC1	100 to 250 nM
N#Cc1nn(C2CCNCC2)cc1-c1ccc(Cl)c(NC(=O)c2coc(N)n2)c1	100 to 250 nM
CN1CCN(c2ccc(-c3ccc(Cl)c(NC(=O)c4coc(N)n4)c3)cn2)CC1	100 to 250 nM
Nc1nc(C(=O)Nc2cc(-c3cnn(C4CCN(CCO)CC4)c3)ccc2Cl)co1	100 to 250 nM
CC1CN(C(=O)Cn2cc(-c3ccc(Cl)c(NC(=O)c4coc(N)n4)c3)cn2)CCN1 (configuration not stated)	250 to 500 nM
CN(C)CCCn1cc(-c2ccc(Cl)c(NC(=O)c3coc(N)n3)c2)cn1	100 to 250 nM
CN1CCC(NCc2ccc(-c3ccc(Cl)c(NC(=O)c4coc(N)n4)c3)cn2)CC1	100 to 250 nM
Nc1nc(C(=O)Nc2cc(-c3cnn(C4CCNC4)c3)ccc2Cl)co1 (configuration not stated)	100 to 250 nM
Cc1nn(C2CCNCC2)cc1-c1ccc(Cl)c(NC(=O)c2coc(N)n2)c1	100 to 250 nM
CNC1CCCN(Cc2ncc(-c3ccc(Cl)c(NC(=O)c4coc(N)n4)c3)s2)C1 (configuration not stated)	100 to 250 nM
Nc1nc(C(=O)Nc2cc(-c3cnn(CCN4CCNCC4)c3)ccc2Cl)co1	250 to 500 nM
CNCC1CCN(Cc2ncc(-c3ccc(Cl)c(NC(=O)c4coc(N)n4)c3)s2)CC1	< 100 nM
CN(C)CCNC(=O)Cn1cc(-c2ccc(Cl)c(NC(=O)c3coc(N)n3)c2)cn1	250 to 500 nM
Nc1nc(C(=O)Nc2cc(-c3cnn(CCCNC4CC4)c3)ccc2Cl)co1	100 to 250 nM
CNC1CCC(n2cc(-c3ccc(Cl)c(NC(=O)c4coc(N)n4)c3)cn2)CC1 (mixture of isomers)	< 100 nM

Tested on: not listed separately
Assay: Ratio of EC50 for CRISPR PAICS knock out mouse LM2 cells to EC50 for mouse wild type LM2 cells
Type: functional
Details: not given

Structure (SMILES)	Ratio EC50
CCNCCCn1cc(-c2ccc(Cl)c(NC(=O)c3coc(N)n3)c2)cn1	>80
CN(C)CCCOc1ncc(-c2ccc(Cl)c(NC(=O)c3coc(N)n3)c2)s1	>30
CN1CCN(c2ccc(-c3ccc(Cl)c(NC(=O)c4coc(N)n4)c3)cn2)CC1	>10

Tested on: MDA-MB-231
Assay: Antiproliferative activity against human MDA-MB-231 cells after 72 hrs by Celltiter-glo luminescence assay
Type: functional, cell-based
Details: MDA-MB-231, 72 h

Structure (SMILES)	EC50
CN(C)CCCOc1nc(-c2ccc(Cl)c(NC(=O)c3coc(N)n3)c2)cs1	250 to 500 nM
